What was measured:
[1] = Antiproliferative activity against human K562/ADR cells measured after 72 hrs by CCK8 assay; format: functional, cell-based
[2] = Antiproliferative activity against human K562 cells measured after 72 hrs by CCK8 assay; format: functional, cell-based; settings: K562, 72 h
K562 = assay: Resistance index, ratio of IC50 for human K562/ADR cells to IC50 for human K562 cells; format: functional
[3] = Potency index, ratio of doxorubicin IC50 to compound IC50 for antiproliferative activity against human K562/ADR cells; format: functional
[4] = Potency index, ratio of etoposide IC50 to compound IC50 for antiproliferative activity against human K562/ADR cells; format: functional

Compound | IC50 [1] [nM] | IC50 [2] [nM] | Ratio IC50 (K562) | Ratio IC50 [3] | Ratio IC50 [4]
COc1cc([C@@H]2c3cc4c(cc3[C@H](OC(=O)c3cn(C)cn3)[C@H]3COC(=O)[C@H]23)OCO4)cc(OC)c1OC | 858 | 79 | 10.86 | – | –
COc1cc([C@@H]2c3cc4c(cc3[C@H](OC(=O)c3cc5ccccc5s3)[C@H]3COC(=O)[C@H]23)OCO4)cc(OC)c1OC | 466 | 184 | 2.532 | – | –
COc1cc([C@@H]2c3cc4c(cc3[C@H](OC(=O)c3nccc5ccccc35)[C@H]3COC(=O)[C@H]23)OCO4)cc(OC)c1OC | 177 | 64 | 2.765 | – | –
COc1cc([C@@H]2c3cc4c(cc3[C@H](OC(=O)c3cnc5ccccc5n3)[C@H]3COC(=O)[C@H]23)OCO4)cc(OC)c1OC | 34 | 22 | 1.545 | 552.323 | 65.029
COc1cc([C@@H]2c3cc4c(cc3[C@H](OC(=O)c3cscn3)[C@H]3COC(=O)[C@H]23)OCO4)cc(OC)c1OC | 74 | 35 | 2.114 | – | –
COc1cc([C@@H]2c3cc4c(cc3[C@H](OC(=O)c3cc(C)on3)[C@H]3COC(=O)[C@H]23)OCO4)cc(OC)c1OC | 52 | 25 | 2.08 | – | –
COc1cc([C@@H]2c3cc4c(cc3[C@H](OC(=O)c3cn(C5CC5)c5cc(Cl)c(F)cc5c3=O)[C@H]3COC(=O)[C@H]23)OCO4)cc(OC)c1OC | 550 | 305 | 1.803 | – | –
COc1cc([C@@H]2c3cc4c(cc3[C@H](OC(=O)c3nn(C)c5ccccc35)[C@H]3COC(=O)[C@H]23)OCO4)cc(OC)c1OC | 115 | 47 | 2.446 | – | –
COc1cc([C@@H]2c3cc4c(cc3[C@H](OC(=O)c3ccc5nc(C)ccc5c3)[C@H]3COC(=O)[C@H]23)OCO4)cc(OC)c1OC | 61 | 64 | 0.953 | – | –
COc1cc([C@@H]2c3cc4c(cc3[C@H](OC(=O)c3cnn(C)c3)[C@H]3COC(=O)[C@H]23)OCO4)cc(OC)c1OC | 139 | 52 | 2.673 | – | –
COc1cc([C@@H]2c3cc4c(cc3[C@@H](O[C@@H]3O[C@@H]5CO[C@@H](C)O[C@H]5[C@H](O)[C@H]3O)[C@H]3COC(=O)[C@H]23)OCO4)cc(OC)c1O [ETOPOSIDE] | 2210 | 345 | 6.408 | – | –
COc1cccc2c1C(=O)c1c(O)c3c(c(O)c1C2=O)C[C@@](O)(C(=O)CO)C[C@@H]3O[C@H]1C[C@H](N)[C@H](O)[C@H](C)O1 [DOXORUBICIN] | 18800 | 220 | 85.359 | – | –
